Reference: patent US20260000496A1, “MATERIALS AND METHODS FOR DRUG-INDUCED GINGIVAL OVERGROWTH” (Optimed Technology, Inc., priority 2019, published 2026)

System: TNF-α in Oral Keratinocytes
Test: TNF-α ELISA in oral keratinocytes
Assay type: cell-based, human
Details: for amount of secreted TNF-α by ELISA: LPS (10 μg/ml), FA (10 μg/ml), 24 hours, p<0.05
Experimental: Cell Culture. Normal human oral keratinocytes (NOKSI) and fibroblast (HOF) cells were maintained in Dulbecco […] Eagle's medium (Sigma-Aldrich, St. Louis, MO, USA) supplemented with 10% fetal bovine serum (Atlas Bio-logicals, Fort Collins, CO, USA) and 100 units/mL penicillin and 100 μg/mL streptomycin (LifeTechnologies, Carlsbad, CA, USA). Cells were grown in incubator at 37° C. in a humidified chamber with 5% CO2.
Drugs treatment in cell culture. The cells were treated alone or with different combination of lipopolysaccharide, cyclosporine, phenytoin, and folic acid. All of them were purchased from Sigma-Aldrich (St. Louis, MO, USA). Each of them were used from 0 μg/ml to 40 μg/ml and the optimum concentration were found 10 μg/ml.
Enzyme linked immunosorbent assay (ELISA). ELISA was conducted with a mouse TNF-α ELISA Kit (PeproTech, USA) and TGF-β Emax ImmunoAssay System (Promega USA) to detect the TNF-α and TGF-β respectively. After normalization of the total cells or tissue protein lysates, 20 μg protein of each sample was used for the detection of TNF-α or TGF-β. ELISA was performed according to the manufacturers' instructions. For TNF-α, 100 ng/100 μl of capture antibody was added to each well of 96 well assay plate and incubated for overnight at room temperature. […] Optical absorbing values were read at 405 and 450 nm and corrected by 650 nm. […] TMB One Solution was added for 15 minutes and the reaction were stopped using 100 μl of 1N hydrochloric acid and the absorbance at 450 nm were recorded on a plate reader. Data were analyzed using excel software. […]
Folic acid reduces TNF-α oral keratinocytes. […] After adhesion, the cells were treated with different concentration of folic acid (2.5 μg/ml-40 μg/ml) and amount of TNF-α was measured by ELISA (p<0.05).
Folic acid reduces TNF-α in Oral Keratinocytes on LPS stimulation. […] The amount of secreted TNF-α was determined by ELISA (p<0.05).
Oral Keratinocytes were seeded and treated with LPS (10 μg/ml), Phe (10 μg/ml), and FA (10 μg/ml) for 24 hours. The amount of secreted TNF-α was determined by ELISA. […]

Structure (SMILES): Nc1nc2ncc(CNc3ccc(C(=O)N[C@@H](CCC(=O)O)C(=O)O)cc3)nc2c(=O)[nH]1 [folic acid]
- amount of secreted TNF-α by ELISA (CSA (10 μg/ml)): reduces TNF-α
- amount of secreted TNF-α by ELISA (Phe (10 μg/ml)): inhibits Phenytoin-induced TNF-α
- amount of TNF-α by ELISA (folic acid […]-40 μg/ml alone, p<0.05 vs non-treated): reduces TNF-α
